Experimental data: PubChem BioAssay (NCI)
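Five concentrations, 48 hours, 96-well plates. Here, GI50 denotes the concentration required for 50% inhibition of growth. Definition used: TGI = concentration required for complete inhibition of growth.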

Tests used:
Test in all cases: NCI-60 cell line screen, 48 h
HT29 colon = tested on: HT29 colon
T-47D breast = tested on: T-47D breast
SK-MEL-5 melanoma = tested on: SK-MEL-5 melanoma
ACHN renal = tested on: ACHN renal
U251 CNS = tested on: U251 CNS
SF-268 CNS = tested on: SF-268 CNS
HL-60(TB) leukemia = tested on: HL-60(TB) leukemia
OVCAR-5 ovarian = tested on: OVCAR-5 ovarian
SNB-19 CNS = tested on: SNB-19 CNS
HOP-62 NSCLC = tested on: HOP-62 NSCLC
BT-549 breast = tested on: BT-549 breast
MDA-MB-435 = tested on: MDA-MB-435
SN12C renal = tested on: SN12C renal
RXF 393 renal = tested on: RXF 393 renal
MOLT-4 leukemia = tested on: MOLT-4 leukemia
A498 renal = tested on: A498 renal
NCI-H460 lung = tested on: NCI-H460 lung
HS 578T breast = tested on: HS 578T breast
SK-OV-3 ovarian = tested on: SK-OV-3 ovarian
A549 NSCLC = tested on: A549 NSCLC
IGROV1 ovarian = tested on: IGROV1 ovarian
HCC-2998 colon = tested on: HCC-2998 colon
NCI-H522 lung = tested on: NCI-H522 lung
NCI-H226 lung = tested on: NCI-H226 lung
COLO 205 colon = tested on: COLO 205 colon
SNB-75 CNS = tested on: SNB-75 CNS
OVCAR-4 ovarian = tested on: OVCAR-4 ovarian
UO-31 renal = tested on: UO-31 renal
MDA-MB-231 breast = tested on: MDA-MB-231 breast
KM12 colon = tested on: KM12 colon
MALME-3M melanoma = tested on: MALME-3M melanoma
M14 melanoma = tested on: M14 melanoma
MDA-MB-468 breast = tested on: MDA-MB-468 breast
OVCAR-8 ovarian = tested on: OVCAR-8 ovarian
UACC-257 melanoma = tested on: UACC-257 melanoma
K-562 leukemia = tested on: K-562 leukemia
DU-145 prostate = tested on: DU-145 prostate
UACC-62 melanoma = tested on: UACC-62 melanoma
SF-295 CNS = tested on: SF-295 CNS
NCI-H23 lung = tested on: NCI-H23 lung
SK-MEL-2 melanoma = tested on: SK-MEL-2 melanoma
SW-620 colon = tested on: SW-620 colon
SK-MEL-28 melanoma = tested on: SK-MEL-28 melanoma
NCI/ADR-RES ovarian = tested on: NCI/ADR-RES ovarian
HCT-15 colon = tested on: HCT-15 colon
LOX IMVI melanoma = tested on: LOX IMVI melanoma
HCT-116 colon = tested on: HCT-116 colon
SR leukemia = tested on: SR leukemia
786-0 renal = tested on: 786-0 renal
CCRF-CEM leukemia = tested on: CCRF-CEM leukemia
SF-539 CNS = tested on: SF-539 CNS
PC-3 prostate = tested on: PC-3 prostate
CAKI-1 renal = tested on: CAKI-1 renal
HOP-92 NSCLC = tested on: HOP-92 NSCLC
TK-10 renal = tested on: TK-10 renal
EKVX NSCLC = tested on: EKVX NSCLC
OVCAR-3 ovarian = tested on: OVCAR-3 ovarian
MCF7 breast = tested on: MCF7 breast
RPMI-8226 leukemia = tested on: RPMI-8226 leukemia

## O=C(COc1ccc(NC(=O)Nc2ccc(Cl)c(Cl)c2)cc1)N=Nc1c(O)[nH]c2ccccc12
HT29 colon
  GI50: 1.97 µM
  TGI: 4 µM
T-47D breast
  GI50: 10.6 µM
  TGI: 25.2 µM
SK-MEL-5 melanoma
  GI50: 4.73 µM
  TGI: 16.7 µM
ACHN renal
  GI50: 7.78 µM
  TGI: 36.2 µM
U251 CNS
  GI50: 1.77 µM
  TGI: 3.32 µM
SF-268 CNS
  GI50: 2.44 µM
  TGI: 6.14 µM
HL-60(TB) leukemia
  GI50: 20.8 µM
  TGI: 71.6 µM
OVCAR-5 ovarian
  GI50: 3.39 µM
  TGI: 13.7 µM
SNB-19 CNS
  GI50: 2.89 µM
  TGI: 10.5 µM
HOP-62 NSCLC
  GI50: 2.34 µM
  TGI: 5.82 µM
BT-549 breast
  GI50: 13.7 µM
  TGI: 29.7 µM
MDA-MB-435
  GI50: 2.05 µM
  TGI: 4.8 µM
SN12C renal
  GI50: 1.77 µM
  TGI: 3.77 µM
RXF 393 renal
  GI50: 2 µM
  TGI: 7.65 µM
MOLT-4 leukemia
  GI50: 3.67 µM
  TGI: 19.8 µM
A498 renal
  GI50: 10.5 µM
  TGI: 23.2 µM
NCI-H460 lung
  GI50: 1.84 µM
  TGI: 3.99 µM
HS 578T breast
  GI50: 3.06 µM
  TGI: 12 µM
SK-OV-3 ovarian
  GI50: 3.28 µM
  TGI: 11.8 µM
A549 NSCLC
  GI50: 2.97 µM
  TGI: 8.33 µM
IGROV1 ovarian
  GI50: 4.59 µM
  TGI: 17.4 µM
HCC-2998 colon
  GI50: 5.31 µM
  TGI: 18.1 µM
NCI-H522 lung
  GI50: 2.49 µM
  TGI: 8.06 µM
NCI-H226 lung
  GI50: 2.76 µM
  TGI: 10.8 µM
COLO 205 colon
  GI50: 2.19 µM
  TGI: 5.18 µM
SNB-75 CNS
  GI50: 1.65 µM
  TGI: 5.09 µM
OVCAR-4 ovarian
  GI50: 2.47 µM
  TGI: 8.09 µM
UO-31 renal
  GI50: 39 µM
  TGI: > 100 µM
MDA-MB-231 breast
  GI50: 1.96 µM
  TGI: 4.7 µM
KM12 colon
  GI50: 2.87 µM
  TGI: 11.2 µM
MALME-3M melanoma
  GI50: 1.83 µM
  TGI: 3.76 µM
M14 melanoma
  GI50: 2.63 µM
  TGI: 8.58 µM
MDA-MB-468 breast
  GI50: 1.8 µM
  TGI: 3.8 µM
OVCAR-8 ovarian
  GI50: 2.1 µM
  TGI: 4.84 µM
UACC-257 melanoma
  GI50: 2.96 µM
  TGI: 10 µM
K-562 leukemia
  GI50: 3.46 µM
  TGI: 17.9 µM
DU-145 prostate
  GI50: 3.29 µM
  TGI: 18.7 µM
UACC-62 melanoma
  GI50: 3.55 µM
  TGI: 13.8 µM
SF-295 CNS
  GI50: 2.23 µM
  TGI: 5.45 µM
NCI-H23 lung
  GI50: 2.91 µM
  TGI: 8.31 µM
SK-MEL-2 melanoma
  GI50: 12.1 µM
  TGI: 25.9 µM
SW-620 colon
  GI50: 1.72 µM
  TGI: 3.79 µM
SK-MEL-28 melanoma
  GI50: 2.12 µM
  TGI: 5.07 µM
NCI/ADR-RES ovarian
  GI50: > 100 µM
  TGI: > 100 µM
HCT-15 colon
  GI50: 46.8 µM
  TGI: > 100 µM
LOX IMVI melanoma
  GI50: 2.79 µM
  TGI: 9.02 µM
HCT-116 colon
  GI50: 3.22 µM
  TGI: 10.3 µM
SR leukemia
  GI50: 4.65 µM
  TGI: 32.9 µM
786-0 renal
  GI50: 2.69 µM
  TGI: 6.27 µM
CCRF-CEM leukemia
  GI50: 3.97 µM
  TGI: 20.8 µM
SF-539 CNS
  GI50: 1.97 µM
  TGI: 4.38 µM
PC-3 prostate
  GI50: 2.01 µM
  TGI: 6.24 µM
CAKI-1 renal
  GI50: 4.69 µM
  TGI: 17.1 µM
HOP-92 NSCLC
  GI50: 2.58 µM
  TGI: 9.45 µM
TK-10 renal
  GI50: 10.6 µM
  TGI: 28.6 µM
EKVX NSCLC
  GI50: 6.11 µM
  TGI: 28 µM
OVCAR-3 ovarian
  GI50: 2.02 µM
  TGI: 4.67 µM
MCF7 breast
  GI50: 2.49 µM
  TGI: 7.48 µM
RPMI-8226 leukemia
  GI50: 5.32 µM
  TGI: 29.8 µM
